Measurements reported in ChEMBL document CHEMBL5154868, “Novel Selective Galectin-3 Antagonists Are Cytotoxic to Acute Lymphoblastic Leukemia” (J Med Chem, 2022).

Columns and labels:
Galectin-4 [1] = target: T1, Galectin-4 (Homo sapiens, UniProt P56470); experiment: Binding affinity to human galectin-4N expressed in Escherichia coli BL21 using 3,3'-dideoxy-3-[4-(fluorescein-5-yl-carbonylaminomethyl)-1H-1,2,3-triazol-1-y1]-3'-(3,5-dimethoxy-benzamido)-1,1'-sulfanediyl-di-beta-D-galactopyranoside as fluorescent probe by fluorescence polarization analysis
T1 sequence (P56470 whole entry): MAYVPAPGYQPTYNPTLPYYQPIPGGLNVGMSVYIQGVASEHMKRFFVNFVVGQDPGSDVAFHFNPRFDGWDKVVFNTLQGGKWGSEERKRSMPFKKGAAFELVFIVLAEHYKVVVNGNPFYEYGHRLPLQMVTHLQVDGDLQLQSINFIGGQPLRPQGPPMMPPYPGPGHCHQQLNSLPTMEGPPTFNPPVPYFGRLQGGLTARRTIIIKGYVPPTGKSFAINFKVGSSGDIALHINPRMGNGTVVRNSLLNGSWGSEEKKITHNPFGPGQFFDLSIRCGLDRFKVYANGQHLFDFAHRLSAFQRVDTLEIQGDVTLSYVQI

Galectin-4 [2] = target: T1, Galectin-4
[3] = target: T2, Galectin-8 (Homo sapiens) (UniProt O00214); experiment: Antagonist activity against human galectin-8N assessed as inhibition of galectin-8N at 2 mM by fluorescence polarization analysis relative to control
T2 sequence (whole entry): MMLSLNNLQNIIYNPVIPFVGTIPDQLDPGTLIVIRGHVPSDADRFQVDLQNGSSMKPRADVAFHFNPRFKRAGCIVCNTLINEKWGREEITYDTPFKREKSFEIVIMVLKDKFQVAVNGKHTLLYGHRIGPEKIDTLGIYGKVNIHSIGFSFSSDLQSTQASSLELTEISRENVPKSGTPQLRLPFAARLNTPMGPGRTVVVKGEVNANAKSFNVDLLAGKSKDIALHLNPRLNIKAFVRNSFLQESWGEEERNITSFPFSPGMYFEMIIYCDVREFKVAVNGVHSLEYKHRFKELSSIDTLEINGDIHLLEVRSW

[4] = Binding affinity to human galectin-1 C3S mutant by fluorescence polarization analysis
TXL2 = experiment: Induction of cell death in human TXL2 patient-derived BCP-ALL cells assessed as reduction in viable cells at 0.5 to 800 uM incubated for 24 hrs by Alamar blue assay; format: functional, cell-based; conditions: dose 0.5-800 µM, DDE = dose-dependent effect
US7 = experiment: Induction of cell death in human US7 patient-derived BCP-ALL cells assessed as reduction in viable cells at 0.5 to 800 uM incubated for 24 hrs by Alamar blue assay; format: functional, cell-based; conditions: dose 0.5-800 µM, DDE = dose-dependent effect
[5] = Cytotoxicity against human US7 patient-derived BCP-ALL cells co-cultured with irradiated OP9 stromal cells assessed as reduction in cell viability incubated for 24 hrs by Alamar blue assay; format: functional, cell-based; conditions: US7, light or radiation study
LAX40 [6] = experiment: Cytotoxicity against human LAX40 patient-derived BCP-ALL cells co-cultured with irradiated OP9 stromal cells assessed as reduction in cell viability at 100 uM for 1 to 3 days by trypan blue staining based assay; format: functional; conditions: time 1-3 day, TDE = time-dependent effect
LAX40 [7] = experiment: Cytostatic activity against human LAX40 patient-derived BCP-ALL cells co-cultured with irradiated OP9 stromal cells assessed as reduction in cell viability at 100 uM for 1 to 3 days by trypan blue staining based assay; format: functional; conditions: time 1-3 day, TDE = time-dependent effect
[8] = Cytotoxicity against mouse bone marrow-derived stromal OP9 cells assessed as live cells at 100 uM measured after 3 days by trypan blue staining based assay relative to control; format: toxicity, cell-based; conditions: time 3 day, read-out: Activity
Galectin-1 = Galectin-1 (Homo sapiens, UniProt P09382); experiment: Binding affinity to human galectin-1 using 3,3'-dideoxy-3-[4-(fluorescein-5-yl-carbonylaminomethyl)-1H-1,2,3-triazol-1-y1]-3'.(3,5-dimethoxy-benzamido)-1,1'-sulfanediyl-di-beta-D-galactopyranoside as fluorescent probe by fluorescence polarization analysis
[9] = target: T3, Galectin-4 (Homo sapiens) (UniProt P56470); experiment: Antagonist activity against human galectin-4N expressed in Escherichia coli BL21 assessed as inhibition of galectin-4N at 2 mM using 3,3'-dideoxy-3-[4-(fluorescein-5-yl-carbonylaminomethyl)-1H-1,2,3-triazol-1-y1]-3'-(3,5-dimethoxy-benzamido)-1,1'-sulfanediyl-di-beta-D-galactopyranoside as fluorescent probe by fluorescence polarization analysis relative to control
T3 sequence (whole entry): T1 sequence (P56470 whole entry)

Galectin-3 = Galectin-3 (Homo sapiens, UniProt P17931)
Description: Binding affinity to human galectin-3 using 2-(fluorescein-5/6-yl-carbonylamino)-ethyl 2-acetamido-2-deoxy-alpha-D-galactopyranosyl-(1-3)-[alpha-L-fucopyranosyl-(1-2)]-beta-D-galactopyranosyl-(1-4)-beta-D-glucopyranoside by fluorescence polarization analysis

Galectin-8 [10] = target: T4, Galectin-8 (Homo sapiens, UniProt O00214); experiment: Binding affinity to human galectin-8C expressed in Escherichia coli BL21(DE3) using 3,3'-dideoxy-3-[4-(fluorescein-5-yl-carbonylaminomethyl)-1H-1,2,3-triazol-1-y1]-3'-(3,5-dimethoxy-benzamido)-1,1'-sulfanediyl-di-beta-D-galactopyranoside as fluorescent probe by fluorescence polarization analysis
T4 sequence (O00214 whole entry): T2 sequence (whole entry)

Galectin-8 [11] = target: T4, Galectin-8; experiment: Binding affinity to human galectin-8N using 3,3'-dideoxy-3-[4-(fluorescein-5-yl-carbonylaminomethyl)-1H-1,2,3-triazol-1-y1]-3'.(3,5-dimethoxy-benzamido)-1,1'-sulfanediyl-di-beta-D-galactopyranoside as fluorescent probe by fluorescence polarization analysis

Galectin-1, sequence (P09382 whole entry): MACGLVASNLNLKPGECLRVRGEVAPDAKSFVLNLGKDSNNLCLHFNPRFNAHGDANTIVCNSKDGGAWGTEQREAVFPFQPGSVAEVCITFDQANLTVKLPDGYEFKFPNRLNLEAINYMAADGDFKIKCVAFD
Galectin-3, sequence (P17931 whole entry): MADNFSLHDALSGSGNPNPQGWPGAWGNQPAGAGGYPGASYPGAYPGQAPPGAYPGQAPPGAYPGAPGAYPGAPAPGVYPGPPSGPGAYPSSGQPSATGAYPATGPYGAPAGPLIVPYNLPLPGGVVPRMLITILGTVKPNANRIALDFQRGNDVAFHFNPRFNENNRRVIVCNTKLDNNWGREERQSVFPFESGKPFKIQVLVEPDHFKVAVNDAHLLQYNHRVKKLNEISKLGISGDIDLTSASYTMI

Kd (Galectin-4 [1]) [µM] | Kd (Galectin-4 [2]) [µM] | inhibition [3] [%] | Kd [4] [µM] | Kd (Galectin-1) [µM] | inhibition [9] [%] | Kd (Galectin-3) [µM] | Kd (Galectin-8 [10]) [µM] | Kd (Galectin-8 [11]) [µM] | SMILES | Activity (TXL2) | Activity (US7) | IC50 [5] [µM] | Activity (LAX40 [6]) | Activity (LAX40 [7]) | viability at 72 h, 100 µM [8] [%]
440 | 48 | < 20 | 1800 |  |  |  |  |  | CO[C@@H]1O[C@H](CO)[C@H](O)[C@H](OC(=O)c2ccc(C)cc2)[C@@H]1OC(=O)c1ccccc1[N+](=O)[O-] | Dde | Dde | 307 | Tde | Tde | ≥ 65
 | 2900 | < 20 |  | 4100 | < 20 | 420 |  |  | CO[C@@H]1O[C@H](CO)[C@H](O)[C@H](OC(=O)c2ccc(C)cc2)[C@@H]1OC(C)=O |  |  |  |  |  | 
710 | 6.5 | < 20 |  | 2100 |  |  | 900 |  | CO[C@@H]1O[C@H](CO)[C@H](O)[C@H](OC(=O)c2ccc(C)cc2)[C@@H]1OC(=O)c1ccc(F)cc1[N+](=O)[O-] |  |  | 150 |  |  | 
1400 | 40 | < 20 |  | 4000 |  |  | 1900 |  | CO[C@@H]1O[C@H](CO)[C@H](O)[C@H](OC(=O)c2ccc(C)cc2)[C@@H]1OC(=O)c1ccc(C(F)(F)F)cc1[N+](=O)[O-] |  |  | 83 | Tde | Tde | 
250 | 18 |  |  | 1400 |  |  | 450 | 4000 | CO[C@@H]1O[C@H](CO)[C@H](O)[C@H](OC(=O)c2ccc(C)cc2)[C@@H]1OC(=O)c1ccc(Cl)cc1[N+](=O)[O-] |  |  | 128 |  |  | 
1400 | 630 | < 20 |  | 2700 |  | 130 | 4000 |  | CO[C@@H]1O[C@H](CO)[C@H](O)[C@H](OC(=O)c2ccc(C)cc2)[C@@H]1OC(=O)c1cccc([N+](=O)[O-])c1 |  |  | 138 |  |  | 
